The results in this text go back to US9399635B2, “Pyrazole derivative” (GREEN TECH CO., LTD., priority 2011, dated 2016).

The melting point is the temperature of the solid-liquid transition. The compound `COc1cc(OCc2ccncc2)ccc1/C=C/c1cc(/C=C/c2cccc3[nH]ccc23)[nH]n1` [Example 49, 3-[(1E)-2-(1H-indol-4-yl)ethenyl]-5-[(1E)-2-[2-methoxy-4-(4-pyridylmethoxy)phenyl]ethenyl]-1H-pyrazole] had a melting point of 207 to 215 °C.
Consider `COc1cc(OCc2cccnc2)ccc1/C=C/c1cc(/C=C/c2cccc3cc[nH]c23)[nH]n1` [Example 50, 3-[(1E)-2-(1H-indol-7-yl)ethenyl]-5-[(1E)-2-[2-methoxy-4-(3-pyridylmethoxy)phenyl]ethenyl]-1H-pyrazole], for which the melting point lay in the range of 122 to 129 °C.
With `COc1cc(OCc2ccncc2)ccc1/C=C/c1cc(/C=C/c2cccc3cc[nH]c23)[nH]n1` [Example 51, 3-[(1E)-2-(1H-indol-7-yl)ethenyl]-5-[(1E)-2-[2-methoxy-4-(4-pyridylmethoxy)phenyl]ethenyl]-1H-pyrazole] the figure was 201 to 206 °C; with `COc1cc(OCc2cccnc2)ccc1/C=C/c1cc(/C=C/c2cc3ccccc3[nH]2)[nH]n1` [Example 52, 3-[(1E)-2-(1H-indol-2-yl)ethenyl]-5-[(1E)-2-[2-methoxy-4-(3-pyridylmethoxy)phenyl]ethenyl]-1H-pyrazole], 126 to 138 °C.
The figure for `COc1cc(OCc2ccncc2)ccc1/C=C/c1cc(/C=C/c2cc3ccccc3[nH]2)[nH]n1` [Example 53, 3-[(1E)-2-(1H-indol-2-yl)ethenyl]-5-[(1E)-2-[2-methoxy-4-(4-pyridylmethoxy)phenyl]ethenyl]-1H-pyrazole] is 124 to 134 °C; for `COc1ccc(/C=C/c2cc(/C=C/c3ccc4cc[nH]c4c3)[nH]n2)c(OC)c1` [Example 54, 3-[(1E)-2-(2,4-dimethoxyphenyl)ethenyl]-5-[(1E)-2-(1H-indol-6-yl)ethenyl]-1H-pyrazole] it is 121 to 133 °C; for `CC(=O)Nc1ccc(/C=C/c2cc(/C=C/c3ccc4cc[nH]c4c3)[nH]n2)cc1` [Example 55, 3-[(1E)-2-[4-(acetylamino)phenyl]ethenyl]-5-[(1E)-2-(1H-indol-6-yl)ethenyl]-1H-pyrazole] it is > 300 °C.
The figure for `C(=C\c1cc(/C=C/c2ccc3cc[nH]c3c2)[nH]n1)/c1ccc(Oc2ccccc2)cc1` [Example 56, 3-[(1E)-2-(1H-indol-6-yl)ethenyl]-5-[(1E)-2-(4-phenoxyphenyl)ethenyl]-1H-pyrazole] is 175 to 182 °C.
`CS(=O)(=O)c1ccc(/C=C/c2cc(/C=C/c3ccc4cc[nH]c4c3)[nH]n2)cc1` [Example 57, 3-[(1E)-2-(1H-indol-6-yl)ethenyl]-5-[(1E)-2-[4-(methanesulfonyl)phenyl]ethenyl]-1H-pyrazole] gave a melting point of 260 to 268 °C.
In turn, `C(=C\c1cc(/C=C/c2ccccc2-c2cccnc2)n[nH]1)/c1ccc2cc[nH]c2c1` [Example 59, 3-[(1E)-2-(1H-indol-6-yl)ethenyl]-5-[(1E)-2-[2-(3-pyridyl)phenyl]ethenyl]-1H-pyrazole] returned a melting point of 248 to 255 °C.
With `COc1cc(Br)c(/C=C/c2cc(/C=C/c3ccc4cc[nH]c4c3)[nH]n2)cc1O` [Example 60, 3-[(1E)-2-(2-bromo-5-hydroxy-4-methoxyphenyl)ethenyl]-5-[(1E)-2-(1H-indol-6-yl)ethenyl]-1H-pyrazole] the figure was 137 to 142 °C; with `C(=C\c1cc(/C=C/c2ccc3cc[nH]c3c2)[nH]n1)/c1ccc(-c2ccccc2)cc1` [Example 61, 3-[(1E)-2-(1H-indol-6-yl)ethenyl]-5-[(1E)-2-(4-phenylphenyl)ethenyl]-1H-pyrazole], 273 to 276 °C; with `CN1CCN(c2ccc(/C=C/c3cc(/C=C/c4ccc5cc[nH]c5c4)[nH]n3)c(Br)c2)CC1` [Example 62, 3-[(1E)-2-[2-bromo-4-(4-methylpiperazin-1-yl)phenyl]ethenyl]-5-[(1E)-2-(1H-indol-6-yl)ethenyl]-1H-pyrazole], 120 to 124 °C.
The figure for `COc1cc(OC(c2ccccc2)c2ccccc2)ccc1/C=C/c1cc(/C=C/c2ccc3cc[nH]c3c2)[nH]n1` [Example 64, 3-[(1E)-2-[4-(diphenylmethoxy)-2-methoxyphenyl]ethenyl]-5-[(1E)-2-(1H-indol-6-yl)ethenyl]-1H-pyrazole] is 114 to 119 °C; for `COc1cc(OC(C)C)ccc1/C=C/c1cc(/C=C/c2ccc3cc[nH]c3c2)[nH]n1` [Example 65, 3-[(1E)-2-(1H-indol-6-yl)ethenyl]-5-[(1E)-2-(4-isopropoxy-2-methoxyphenyl)ethenyl]-1H-pyrazole] it is 107 to 113 °C; for `COCCOc1ccc(/C=C/c2cc(/C=C/c3ccc4cc[nH]c4c3)[nH]n2)c(OC)c1` [Example 66, 3-[(1E)-2-(1H-indol-6-yl)ethenyl]-5-[(1E)-2-[2-methoxy-4-(2-methoxyethoxy)phenyl]ethenyl]-1H-pyrazole] it is 90 to 96 °C.
With `COc1ccc(Br)c(/C=C/c2cc(/C=C/c3ccc4cc[nH]c4c3)[nH]n2)c1` [Example 67, 3-[(1E)-2-(2-bromo-5-methoxyphenyl)ethenyl]-5-[(1E)-2-(1H-indol-6-yl)ethenyl]-1H-pyrazole] the figure was 103 to 109 °C.
`COc1ccc(COc2ccc(/C=C/c3cc(/C=C/c4ccc5cc[nH]c5c4)[nH]n3)c(OC)c2)cc1` [Example 68, 3-[(1E)-2-(1H-indol-6-yl)ethenyl]-5-[(1E)-2-[2-methoxy-4-(4-methoxybenzyloxy)phenyl]ethenyl]-1H-pyrazole] came in with a melting point of 211 to 214 °C.
With `COc1cc(OCc2ccccn2)ccc1/C=C/c1cc(/C=C/c2cccc3ncccc23)[nH]n1` [Example 69, 3-[(1E)-2-(quinolin-5-yl)ethenyl]-5-[(1E)-2-[2-methoxy-4-(2-pyridylmethoxy)phenyl]ethenyl]-1H-pyrazole] the figure was 107 to 120 °C; with `COc1cc(OCc2ccccn2)ccc1/C=C/c1cc(/C=C/c2ccc3ccn(Cc4ccccc4)c3c2)[nH]n1` [Example 70, 3-[(1E)-2-(1-benzyl-1H-indol-6-yl)ethenyl]-5-[(1E)-2-[2-methoxy-4-(2-pyridylmethoxy)phenyl]ethenyl]-1H-pyrazole], 89 to 93 °C; with `Brc1cc(N2CCOCC2)ccc1/C=C/c1cc(/C=C/c2ccc3cc[nH]c3c2)[nH]n1` [Example 71, 3-[(1E)-2-[2-bromo-4-(morpholin-4-yl)phenyl]ethenyl]-5-[(1E)-2-(1H-indol-6-yl)ethenyl]-1H-pyrazole], 143 to 148 °C.
With `COc1cc(OCc2ccccn2)ccc1/C=C/c1cc(/C=C/c2ccc3ccn(C(C)=O)c3c2)[nH]n1` [Example 73, 3-[(1E)-2-(1-acetyl-1H-indol-6-yl)ethenyl]-5-[(1E)-2-[2-methoxy-4-(2-pyridylmethoxy)phenyl]ethenyl]-1H-pyrazole] the figure was 182 to 187 °C; with `COc1cc(OCc2ccccn2)ccc1/C=C/c1cc(/C=C/c2ccc3ccn(S(C)(=O)=O)c3c2)[nH]n1` [Example 74, 3-[(1E)-2-(1-methanesulfonyl-1H-indol-6-yl)ethenyl]-5-[(1E)-2-[2-methoxy-4-(2-pyridylmethoxy)phenyl]ethenyl]-1H-pyrazole], 212 to 214 °C.
With `COc1cc(OCc2ccccn2)ccc1/C=C/c1cc(/C=C/c2c[nH]c3ncccc23)[nH]n1` [Example 75, 3-[(1E)-2-(7-aza-1H-indol-3-yl)ethenyl]-5-[(1E)-2-[2-methoxy-4-(2-pyridylmethoxy)phenyl]ethenyl]-1H-pyrazole] the figure was 219 to 223 °C.
Take `COc1cc(OCCN(C)C)ccc1/C=C/c1cc(/C=C/c2ccc3cc[nH]c3c2)[nH]n1` [Example 76, 3-[(1E)-2-[4-[2-(dimethylamino)ethoxy]-2-methoxyphenyl]ethenyl]-5-[(1E)-2-(1H-indol-6-yl)ethenyl]-1H-pyrazole]: the melting point lay within 109 to 112 °C.
With `CC(C)c1ccc(/C=C/c2cc(/C=C/c3ccc4cc[nH]c4c3)[nH]n2)cc1` [Example 78, 3-[(1E)-2-(1H-indol-6-yl)ethenyl]-5-[(1E)-2-(4-isopropylphenyl)ethenyl]-1H-pyrazole], the melting point lay in the range of 208 to 212 °C.
The figure for `COc1cc(OCC2CCCCC2)ccc1/C=C/c1cc(/C=C/c2ccc3cc[nH]c3c2)[nH]n1` [Example 80, 3-[(1E)-2-[4-(cyclohexylmethoxy)-2-methoxyphenyl]ethenyl]-5-[(1E)-2-(1H-indol-6-yl)ethenyl]-1H-pyrazole] is 104 to 108 °C.
With `COc1cc(OCCn2cccc2)ccc1/C=C/c1cc(/C=C/c2ccc3cc[nH]c3c2)[nH]n1` [Example 81, 3-[(1E)-2-(1H-indol-6-yl)ethenyl]-5-[(1E)-2-[2-methoxy-4-[2-(pyrrol-1-yl)ethoxy]phenyl]ethenyl]-1H-pyrazole] the figure was 102 to 110 °C; with `CCN(CC)c1ccc(/C=C/c2cc(/C=C/c3ccc4cc[nH]c4c3)[nH]n2)c(OCCN2CCCCC2)c1` [Example 97, 3-[(1E)-2-[4-diethylamino-2-[2-(1-piperidyl)ethoxy]phenyl]ethenyl]-5-[(1E)-2-(1H-indol-6-yl)ethenyl]-1H-pyrazole], 102 to 104 °C.
With `COc1cc(OCc2ccccn2)ccc1/C=C/c1cc(/C=C/c2c[nH]c3ccc(F)cc23)[nH]n1` [Example 99, 3-[(1E)-2-(5-fluoro-1H-indol-3-yl)ethenyl]-5-[(1E)-2-[2-methoxy-4-(2-pyridylmethoxy)phenyl]ethenyl]-1H-pyrazole] the figure was 209 to 213 °C; with `COc1ccc2[nH]cc(/C=C/c3cc(/C=C/c4ccc(OCc5ccccn5)cc4OC)n[nH]3)c2c1` [Example 100, 3-[(1E)-2-(5-methoxy-1H-indol-3-yl)ethenyl]-5-[(1E)-2-[2-methoxy-4-(2-pyridylmethoxy)phenyl]ethenyl]-1H-pyrazole], 189 to 195 °C; with `C(=C\c1cc(/C=C/c2ccc3cc[nH]c3c2)[nH]n1)/c1ccc(N2CCOCC2)cc1` [Example 103, 5-[(1E)-2-(1H-indol-6-yl)ethenyl]-3-[(1E)-2-(4-morpholinophenyl)ethenyl]-1H-pyrazole], 236 to 238 °C.
